In patent US20230115176A1 (Ra Pharmaceuticals, Inc., priority 2019, published 2023) one finds IC50 data, which are given here for 54 compounds.

The assay deals with T1, Human C5 (Homo sapiens, UniProt P01031).
T1 construct: purchased Complement Technology
T1 sequence (P01031 19-1676): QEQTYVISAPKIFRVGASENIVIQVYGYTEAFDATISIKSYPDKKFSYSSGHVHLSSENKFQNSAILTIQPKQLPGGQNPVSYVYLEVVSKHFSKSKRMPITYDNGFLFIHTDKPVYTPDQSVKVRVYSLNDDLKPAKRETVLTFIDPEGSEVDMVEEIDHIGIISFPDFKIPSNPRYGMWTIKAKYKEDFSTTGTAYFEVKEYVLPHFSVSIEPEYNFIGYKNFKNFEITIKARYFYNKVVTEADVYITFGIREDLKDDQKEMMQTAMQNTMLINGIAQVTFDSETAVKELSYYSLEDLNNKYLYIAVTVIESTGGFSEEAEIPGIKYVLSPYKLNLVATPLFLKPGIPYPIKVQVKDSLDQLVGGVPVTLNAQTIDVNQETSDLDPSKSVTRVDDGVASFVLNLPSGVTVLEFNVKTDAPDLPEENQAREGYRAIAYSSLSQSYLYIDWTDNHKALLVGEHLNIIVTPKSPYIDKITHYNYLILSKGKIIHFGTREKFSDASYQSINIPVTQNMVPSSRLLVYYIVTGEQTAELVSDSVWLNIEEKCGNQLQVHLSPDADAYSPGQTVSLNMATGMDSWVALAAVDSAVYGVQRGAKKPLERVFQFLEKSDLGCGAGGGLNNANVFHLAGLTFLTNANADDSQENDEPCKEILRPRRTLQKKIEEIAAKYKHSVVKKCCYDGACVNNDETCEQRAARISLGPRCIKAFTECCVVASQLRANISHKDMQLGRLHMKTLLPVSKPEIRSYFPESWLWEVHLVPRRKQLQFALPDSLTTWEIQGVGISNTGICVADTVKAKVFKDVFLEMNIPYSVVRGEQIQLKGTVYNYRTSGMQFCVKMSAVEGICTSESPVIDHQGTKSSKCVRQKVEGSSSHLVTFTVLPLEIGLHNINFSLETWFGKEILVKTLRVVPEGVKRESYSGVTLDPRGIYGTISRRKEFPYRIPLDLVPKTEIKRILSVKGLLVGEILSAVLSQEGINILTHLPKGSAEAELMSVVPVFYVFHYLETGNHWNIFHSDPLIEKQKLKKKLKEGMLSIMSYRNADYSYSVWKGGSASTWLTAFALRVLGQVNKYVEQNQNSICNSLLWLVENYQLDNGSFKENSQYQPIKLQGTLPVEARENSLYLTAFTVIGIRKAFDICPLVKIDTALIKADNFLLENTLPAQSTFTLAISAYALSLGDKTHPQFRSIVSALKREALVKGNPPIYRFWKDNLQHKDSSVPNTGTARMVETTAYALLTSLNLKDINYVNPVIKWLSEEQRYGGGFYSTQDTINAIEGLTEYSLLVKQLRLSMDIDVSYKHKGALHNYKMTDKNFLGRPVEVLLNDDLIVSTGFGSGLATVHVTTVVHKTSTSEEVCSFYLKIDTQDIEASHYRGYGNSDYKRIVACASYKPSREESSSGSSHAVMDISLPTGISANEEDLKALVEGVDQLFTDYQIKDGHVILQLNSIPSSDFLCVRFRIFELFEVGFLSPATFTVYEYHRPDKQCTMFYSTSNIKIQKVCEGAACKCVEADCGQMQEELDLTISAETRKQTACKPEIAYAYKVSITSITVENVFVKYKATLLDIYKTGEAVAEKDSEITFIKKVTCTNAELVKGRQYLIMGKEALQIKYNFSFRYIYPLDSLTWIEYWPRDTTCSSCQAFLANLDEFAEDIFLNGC
Briefly: Red blood cell (RBC) hemolysis assay, luminescent (Example 13, Table 22). The assay is classed as cell-based. Conditions: sheep EA cells, […] C5-depleted human serum, 0.5 nM human C5, 1 hour 37° C., luminescence. An excerpt:
Compound CU0136 is a racemic mixture of Compound CU0186 and CU0187. Numbers in parenthesis following compound numbers indicate alternate enantiomers (as distinguished by retention time during chromatographical separation).
In general, IC50 refers to the concentration that inhibits the measured activity by half. A higher IC50 goes with weaker potency. As to `CCCCCOc1cc(N2CCCN(Cc3cc(F)cc4c3ccn4CC(=O)N(C)C)C2=O)ccc1OC` [CU0237], 43.9 nM corresponded to half-maximal inhibition (IC50). This counts as double-digit nanomolar.

Compound `COc1ccc(F)cc1CN1CCCN(c2ccc(OC)c(OCCC3CCCCC3)c2)C1=O` [CU0216] yielded an IC50 of 27 nM.

As to `CCCCCOc1cc(N2CCCN(Cc3ccc(CNC(=O)OC4CC4)cc3OC)C2=O)ccc1OC` [CU0202], 10.8 nM corresponded to half-maximal inhibition (IC50).

With `CCCCCOc1cc(N2CCCN(Cc3ccc(CC(=O)NC4CCN(C(C)=O)C4)cc3Cl)C2=O)ccc1OC` (stereo not drawn) [CU0134], the midpoint of inhibition, the IC50, lay at 16.1 nM.

The compound `CCCCCOc1cc(N2CCCN(Cc3ccc(CC(=O)NC4CCN(C(C)C)CC4)cc3Cl)C2=O)ccc1OC` [CU0135] displayed an IC50 of 14.5 nM. The IC50 values of the last two compounds are within 1.5-fold of each other.

The compound `COc1ccc(F)cc1CN1CCCN(c2ccc(OC)c(OCCC[C@H]3C[C@@H]3C)c2)C1=O` [CU0205] came in with an IC50 of 5.1 nM.

In turn, `CCCCCOc1cc(N2CCCN(Cc3ccc(CCOC(=O)N4CCCC4)cc3OC)C2=O)ccc1OC` [CU0138] displayed an IC50 of 55.4 nM.

For the compound `CCCCCOc1cc(N2CCCN(Cc3ccc(CCO)cc3OC)C2=O)ccc1OC` [CU0159], the IC50 was 98.8 nM.

For the compound `CCCCCOc1cc(N2CCCN(Cc3ccc(CC#N)cc3OC)C2=O)ccc1OC` [CU0210], the IC50 worked out at 32.9 nM.

For the compound `CCCCCOc1cc(N2CCCN(Cc3ccc(CCOCCN4CCCC4)cc3OC)C2=O)ccc1OC` [CU0189], inhibition was half-maximal at 413 nM (IC50).

`COc1cc(CC(=O)N(C)C)ccc1CN1CCCN(c2ccc(OC)c(OCc3ccccc3)c2)C1=O` [CU0199] returned an IC50 of 370 nM.

`CCCCCOc1cc(N2CCCN(Cc3cccc4c3cc(C)n4CC(=O)N(C)C)C2=O)ccc1OC` [CU0238] displayed a 50% inhibitory concentration (IC50) of 61 nM.

As for `C=CCCCOc1cc(N2CCCN(Cc3cc(F)ccc3OC)C2=O)ccc1OC` [CU0167], 39.9 nM corresponded to half-maximal inhibition (IC50). This IC50 lies about 1.5-fold lower than the previous one.

For `CCCCCOc1cc(N2CCCN(Cc3ccc(CC(=O)N4CCCOCC4)cc3OC)C2=O)ccc1C1CC1` [CU0114], the IC50 was 99.1 nM.

The compound `CCCCCOc1cc(N2CCCN(Cc3ccc(CNC(=O)C4CN(C)C4)cc3OC)C2=O)ccc1OC` [CU0191] yielded an IC50 of 87.9 nM. This IC50 and that of the compound before are within 1.5-fold of each other.

`COc1ccc(N2CCCN(Cc3cccc4[nH]ccc34)C2=O)cc1OCCCC(C)(F)F` [CU0240] showed an IC50 of 42.2 nM.

`CCCCCOc1cc(N2CCCN(Cc3cccc4nc(C)oc34)C2=O)ccc1OC` [CU0066] yielded an IC50 of 243 nM. This IC50 lies about 5.8-fold higher than the previous one.

In the case of `CCCCCOc1cc(N2CCN(Cc3ccccc3Cl)C2=O)ccc1OC` [CU0009], the IC50 was found to be 203 nM. The IC50 values of the last two compounds are within 1.5-fold of each other.

Compound `CCC(F)(F)CCOc1cc(N2CCCN(Cc3ccc(CC(=O)N4CCO[C@H](COC)C4)cc3OC)C2=O)ccc1OC` [CU0197] gave an IC50 of 31.6 nM.

Take `CCCCCOc1cc(N2CCCN(Cc3ccc(F)cc3OC)C2=O)ccc1OC` [CU0165]: the IC50 was found to be 36 nM. This IC50 and that of the compound before are within 1.5-fold of each other.

`CCCCCOc1cc(N2CCCN(Cc3ccc(CN(C)C(=O)OC)cc3OC)C2=O)ccc1OC` [CU0149] yielded an IC50 of 24.1 nM.

Compound `C#CCCCOc1cc(N2CCCN(Cc3cc(F)ccc3OC)C2=O)ccc1OC` [CU0179] came in with an IC50 of 156 nM.

The compound `COc1ccc(F)cc1CN1CCCN(c2ccc(OC)c(OCc3ccccc3)c2)C1=O` [CU0164] returned an IC50 of 592 nM.

As to `CCCCCOc1cc(N2CCCN(Cc3cccc(N4CCN(C)CC4)c3F)C2=O)ccc1OC` [CU0133], half-maximal inhibition (IC50) required 82.2 nM.

With `CCCCCOc1cc(N2CCCN(Cc3cccc(-c4cnn(C5CCN(C)CC5)c4)c3OC)C2=O)ccc1OC` [CU0157], half-maximal inhibition (IC50) required 146 nM.

With `CCCCCOc1cc(N2CCCN(Cc3ccc(C(O)c4nccn4C)cc3OC)C2=O)ccc1OC` (stereo not drawn) [CU0200], the IC50 came to 8.9 nM.

Consider `COc1ccccc1CN1CCCN(c2ccc(OC)c(OCCCC(C)(F)F)c2)C1=O` [CU0143], for which inhibition was half-maximal at 23.3 nM (IC50).

For `COc1ccc(F)cc1CN1CCCN(c2ccc(OC)c(OCC3CCCC3)c2)C1=O` [CU0168], the half-maximal inhibitory concentration (IC50) stood at 232 nM.

`CCCCCOc1cc(N2CCCN(Cc3cccc(N4CCC(C(C)(C)O)C4)c3F)C2=O)ccc1OC` (stereo not drawn) [CU0131] displayed an IC50 of 151 nM.

In turn, `CCCCCOc1cc(N2CCCN(Cc3cccc4c3ccn4C3CCN(C4CC4)C3=O)C2=O)ccc1OC` (stereo not drawn) [CU0241] yielded an IC50 of 10.7 nM. This IC50 lies about 14-fold lower than the previous one.

Consider `COc1ccc(F)cc1CN1CCCN(c2ccc(OC)c(OCc3ccc(C)cc3)c2)C1=O` [CU0180], for which half-maximal inhibition (IC50) required 411 nM.

The compound `CCCCCOc1cc(N2CCCN(Cc3cccc(C4=CCNCC4)c3F)C2=O)ccc1OC` [CU0128] displayed an IC50 of 60.6 nM.

Take `COc1cc(CC(=O)N2CCCOCC2)ccc1CN1CCCN(c2ccc(OC)c(OCCCC(C)(F)F)c2)C1=O` [CU0146]: the IC50 turned out to be 12.5 nM.

The compound `COc1ccc(F)cc1CN1CCCN(c2ccc(OC)c(OCCC[C@H]3C[C@H]3C)c2)C1=O` [CU0206] returned an IC50 of 11.9 nM.

In turn, `CCCCCOc1cc(N2CCN(Cc3ccnc4c3ccn4CC(=O)N(C)C)C2=O)ccc1C1CC1` [CU0034] yielded an IC50 of 1230 nM.

Take `CCCCCOc1cc(N2CCCN(Cc3ccc(CCn4ccnn4)cc3OC)C2=O)ccc1OC` [CU0147]: the IC50 came to 46.4 nM.

The compound `COc1cc(CC(=O)NC2CCN(C(C)=O)C2)ccc1CN1CCCN(c2ccc(OC)c(OCCCC(C)(F)F)c2)C1=O` (stereo not drawn) [CU0142] came in with an IC50 of 18.3 nM.

In the case of `COc1ccc(N2CCCN(Cc3ccnc4c3ccn4CC(=O)N(C)C)C2=O)cc1OCCC1CCCC1` [CU0259], the IC50 turned out to be 75 nM.

The compound `CCCCCOc1cc(N2CCCN(Cc3ccnc4c3ccn4CC(=O)N3CCCOCC3)C2=O)ccc1C1CC1` [CU0054] had an IC50 of 117 nM.

In the case of `CCCCCOc1cc(N2CCCN(Cc3ccc(F)c(-c4cnn(C5CCN(C)CC5)c4)c3)C2=O)ccc1OC` [CU0150], 87.6 nM corresponded to half-maximal inhibition (IC50).

The compound `COc1ccc(F)cc1CN1CCCN(c2ccc(OC)c(OCC3CC4(CCC4)C3)c2)C1=O` [CU0198] registered an IC50 of 70.1 nM. This IC50 and that of the compound before are within 1.5-fold of each other.

Consider `CCCCCOc1cc(N2CCCN(Cc3ccc(CC(=O)O)cc3OC)C2=O)ccc1OC` [CU0102], for which the IC50 turned out to be 53.7 nM.

`CCCCCOc1cc(N2CCCN(Cc3ccc(CCn4ccnc4)cc3OC)C2=O)ccc1OC` [CU0139] registered an IC50 of 91.7 nM.

Compound `CCCCCOc1cc(N2CCCN(Cc3cccc(-c4cnn(C5COC5)c4)c3F)C2=O)ccc1OC` [CU0119] displayed an IC50 of 52 nM.

In the case of `COc1cc(F)ccc1CN1CCCN(c2ccc(OC)c(OCc3ccccc3)c2)C1=O` [CU0163], 1000 nM corresponded to half-maximal inhibition (IC50).

Turning to `COc1ccc(N2CCCN(Cc3ccnc4c3ccn4CC(=O)N(C)C)C2=O)cc1OCC[C@@H]1C[C@@H]2CC[C@H]1C2` [CU0253], the IC50 turned out to be 41.9 nM.

The compound `COc1cc(Cl)ccc1CN1CCCN(c2ccc(OC)c(OCc3ccccc3)c2)C1=O` [CU0162] showed an IC50 of 2870 nM. Compared with the last compound, the IC50 is about 68-fold higher.

For `CCCCCOc1cc(N2CCCN(Cc3cc(-c4cnn(C5CCN(C)CC5)c4)ccc3OC)C2=O)ccc1OC` [CU0152], the IC50 was 146 nM.

On to `CCCCCOc1cc(N2CCCN(Cc3ccc(CNC(=O)OC)cc3OC)C2=O)ccc1OC` [CU0137], for which inhibition was half-maximal at 10 nM (IC50). Compared with the last compound, the IC50 is about 15-fold lower.

The compound `CCCCCOc1cc(N2CCCN(Cc3cccc4nc(CC)oc34)C2=O)ccc1OC` [CU0067] had an IC50 of 946 nM.

Turning to `COc1ccc(F)cc1CN1CCCN(c2ccc(OC)c(OCc3cccc(C)c3)c2)C1=O` [CU0181], the IC50 came to 119 nM.

`COc1ccc(N2CCCN(Cc3ccnc4c3ccn4CC(=O)N(C)C)C2=O)cc1OCCCC(C)(F)F` [CU0262] displayed an IC50 of 34.6 nM. Against the preceding compound, the IC50 is about 3.4-fold lower.

On to `CCCCCOc1cc(N2CCCN(Cc3ccc(CC(=O)N(C)C)cc3OC)C2=O)ccc1C1CC1` [CU0113], for which the IC50 was determined as 54.8 nM. Compared with the last compound, the IC50 is about 1.6-fold higher.

Consider `CCC#CCOc1cc(N2CCCN(Cc3cc(F)ccc3OC)C2=O)ccc1OC` [CU0169], for which the IC50 stood at 82.4 nM.
